Among the data in patent US20070197513A1, “Ion channel modulators” (priority 2004, published 2007) are IC50 values, retold here.

Structures are written as SMILES. Read-outs that look alike come from different tables or passages of the source.

This experiment relates to calcium channel (e.g., L-type, N-type, etc.) current. Kind of experiment: HEK assay: whole-cell voltage clamp in transiently transfected HEK-293T/17 cells. It counts as cell-based. The note with it: patch clamp, holding potential −100 mV, steps to about +10 mV. As to the method: HEK-293T/17 cells are transiently transfected in a similar manner as described in FuGENE 6 Package Insert Version 7, April 2002, Roche Applied Science, Indianapolis, Ind. The cells are plated at 2.5×10^5 cells in 2 mL in a 6-well plate in incubator for one night and achieve a 30 40% confluence. In a small sterile tube, add sufficient serum-free medium as diluent for FuGENE Transfection Reagent (Roche Applied Science, Indianapolis, Ind.), to a total volume of 100 μL. Add 3 μL of FuGENE 6 Reagent directly into this medium. The mixture is tapped gently to mix. 2 μg of DNA solution (0.8-2.0 μg/μL) is added to the prediluted FuGENE 6 Reagent from above. The DNA/Fugene 6 mixture is gently pipeted to mix the contents and incubated for about 15 minutes at room temperature. The complex mixture is then added to the HEK-293T/17 cells, distributing it around the well, and swirled to ensure even dispersal. The cells are returned to the incubator for 24 hrs. The transfected cells are then replated at density 2.5×10^5 in a 35 mm dish with 5 glass coverslips and grow in low serum(1%) media for 24 hrs. Coverslips with isolated cells are then transferred into chamber and calcium channel ([…].) current or other currents for counter screening are recorded from the transiently transfected HEK-293T/17 cells. The whole-cell voltage clamp configuration of the patch clamp technique is employed to evaluate voltage-dependent calcium currents essentially as described by Thompson and Wong (1991) J. Physiol., 439: 671-689. […] Table 3 contains IC50's for representative compounds.
A general note: Patch clamp records ionic current or voltage across a cell membrane.

In the case of `COc1ccccc1-c1nc(CCN(C)c2ccc(F)cc2)cn1-c1ccc(Cl)cc1` [Compound 1], the IC50 (commonly the concentration at which inhibition is half-maximal) stood at 46 nM. `COc1ccccc1-c1nc(Cc2nc3ccccc3[nH]2)cn1-c1ccc(Cl)cc1` [Compound 2, 2-[1-(4-Chloro-phenyl)-2-(2-methoxy-phenyl)-1H-imidazol-4-ylmethyl]-1H-benzoimidazole]: the IC50 (read-out: IC50) was determined as 173 nM.

`COc1ccccc1-c1nc(CCN2CCCC2)cn1-c1ccc(Cl)cc1` [Compound 6]: the IC50 (read-out: IC50) stood at 990 nM.
